Square brackets hold non-standard residues; d marks the D form. Ends that are not written are not given here.
Columns and labels:
[1] = test system: primary embryonic cultures and differentiated PC12 cells; conditions: at dosages that inhibit activation of JNKs; after trophic withdrawal and in mice treated with 1-methyl-4-phenyl tetrahydropyridine; cited from earlier work
[2] = test system: cultured chick embryonic dorsal root ganglion, sympathetic, ciliary and motor neurons; conditions: cited from earlier work
JNK = conditions: JBDs of IB1 and IB2 vs c-Jun or ATF2; cited from earlier work
hippocampal CA1 neurons = conditions: in vivo, transient global ischemia; cited from earlier work
βTC-3 cell cultures = assay: Cellular import of fluorescein-labeled TAT and TAT-IB1(s) peptides; type: cell-based; conditions: for entry of fluorescein labeled peptide into cells: labeled peptides (1 PM), BSA 1 μM, βTC-3 cells
Experimental: The ability of the L- and D-enantiomeric forms of TAT and TAT-IB(s) peptides (“TAT-IB peptides”) to enter cells was evaluated. L-TAT, D-TAT, L-TAT-IB1(s), and D-TAT-IB1(s) peptides [SEQ ID NOs: 5, 6, 9 and 12, respectively] were labeled by N-terminal addition of a glycine residue conjugated to fluorescein. Labeled peptides (1 PM) were added to βTC-3 cell cultures, which were maintained as described in Example 3. At predetermined times cells were washed with PBS and fixed for five minutes in ice-cold methanol-acetone (1:1) before being examined under a fluorescence microscope. Fluorescein-labeled BSA (1 μM, 12 moles/mole BSA) was used as a control.
Little to no signal was present at 48 hours.
Fluorescent signals from these all-D retro-inverso peptides were still very strong 1 week later, and the signal was only slightly diminished at 2 weeks post treatment.

βTC-3 cells = assay: IL-1β induced pancreatic beta-cell death, peptide addition; type: cell-based; conditions: one single addition of peptide 1 μM, two days of incubation with IL-1β
Experimental: Inhibition of IL-1β induced pancreatic beta-cell death by the D-TAT-IB1(s) peptide was analyzed. βTC-3 cells were incubated as described above for 30 minutes with one single addition of the indicated peptides (1 μM), then IL-1 (10 ng/ml) was added.
Apoptotic cells were then counted after two days of incubation with IL-1β by use of Propidium Iodide and Hoechst 33342 nuclear staining. A minimum of 1,000 cells were counted for each experiment. Standard Error of the Means (SEM) are indicated, n=5.
Long term inhibition of IL-1P induced cell-death by the D-TAT-IB1 peptide was also analyzed. βTC-3 cells were incubated as above for 30 minutes with one single addition of the indicated peptides (1 μM), then […] (10 ng/ml) was added, followed by addition of the cytokine every two days. Apoptotic cells were then counted after 15 days of incubation with IL-1 by use of propidium iodide and Hoechst 33342 nuclear staining. […] A minimum of 1.000 cells were counted for each experiment.

Compound: CCSCc1ccc2c(c1)c1c3c(c4c5cc(CSCC)ccc5n5c4c1n2[C@H]1C[C@](O)(C(=O)OC)[C@]5(C)O1)CNC3=O [CEP-1347]
- neuronal survival [1]: promotes neuronal survival
- long term-survival of neurons [2]: can promote long term-survival

Compound: PGTGCGDTYRPKRPTTLNLFPQVPRSQDT (Description of sequence peptide IB1-long (see Table 1))
- efficiency in binding JNK relative to c-Jun or ATF2 (JNK): approximately 100 fold

Compound: N#CC(c1ccnc(NCCc2cccnc2)n1)c1nc2ccccc2s1 (stereo not shown) [AS601245]
- protection against the delayed loss of hippocampal CA1 neurons (hippocampal CA1 neurons): provided significant protection

Compound: GRKKRRQRRR (Description of sequence Peptide L-TAT (see Table 1))
- entry of fluorescein labeled peptide into cells (βTC-3 cell cultures): efficiently and rapidly (less than five minutes) entered cells

Compound: TDQSRPVQPFLNLTTPRKPRYTDPPRRRQRRKKRG ([dT][dD][dQ][dS][dR][dP][dV][dQ][dP][dF][dL][dN][dL][dT][dT][dP][dR][dK][dP][dR][dY][dT][dD][dP][dP][dR][dR][dR][dQ][dR][dR][dK][dK][dR]G) [D-TAT-IB1]
- IL-1 induced apoptosis (βTC-3 cells): decreased IL-1 induced apoptosis to a similar extent as L-TAT-IB peptides

Compound: IPSPSVEEPHKHRPTTLRLTTLGAQDS (Description of sequence Peptide IB2-long (see Table 1))
- efficiency in binding JNK relative to c-Jun or ATF2 (JNK): approximately 100 fold

Compound: RRRQRRKKRG (D-amino acids; Description of sequence Peptide D-TAT (see Table 1); MUTAGEN (1)..(10) all amino acids are D-amino acids)
- stability inside the cells (βTC-3 cell cultures): extremely stable inside the cells

Compound: CC(C)C[C@@H](NC(=O)[C@@H](Cc1ccccc1)NC(=O)[C@H]1CCCN1C(=O)[C@@H](CCC(N)=O)NC(=O)[C@H](NC(=O)[C@H]1CCCN1C(=O)[C@@H](CCCNC(=N)N)NC(=O)[C@@H](CO)NC(=O)[C@@H](CCC(N)=O)NC(=O)[C@H](N)CC(=O)O)C(C)C)C(=O)N[C@H](CC(N)=O)C(=O)N[C@H](CC(C)C)C(=O)N[C@@H](C(=O)N[C@@H](C(=O)N1CCC[C@@H]1C(=O)N[C@H](CCCNC(=N)N)C(=O)N[C@H](CCCCN)C(=O)N1CCC[C@@H]1C(=O)N[C@H](CCCNC(=N)N)C(=O)N1CCC[C@@H]1C(=O)N1CCC[C@@H]1C(=O)N[C@H](CCCNC(=N)N)C(=O)N[C@H](CCCNC(=N)N)C(=O)N[C@H](CCCNC(=N)N)C(=O)N[C@H](CCC(N)=O)C(=O)N[C@H](CCCNC(=N)N)C(=O)N[C@H](CCCNC(=N)N)C(=O)N[C@H](CCCCN)C(=O)N[C@H](CCCCN)C(=O)N[C@H](CCCNC(=N)N)C(=O)NCC(=O)O)[C@H](C)O)[C@H](C)O [XG-102]
- stability inside the cells (βTC-3 cell cultures): extremely stable inside the cells

Compound: GRKKRRQRRRPPRPKRPTTLNLFPQVPRSQD [L-TAT-IB1(s)]
- entry of fluorescein labeled peptide into cells (βTC-3 cell cultures): efficiently and rapidly (less than five minutes) entered cells
